From the supplement of paper PMC10307832

Columns and labels:
Test in all cases: relative viability (nuclei count vs DMSO), 5 days (fraction); higher = more cells survive
Avagacestat + Crizotinib = compound: NC(=O)[C@@H](CCC(F)(F)F)N(Cc1ccc(-c2ncon2)cc1F)S(=O)(=O)c1ccc(Cl)cc1 [Avagacestat] + C[C@@H](Oc1cc(-c2cnn(C3CCNCC3)c2)cnc1N)c1c(Cl)ccc(F)c1Cl [Crizotinib] (partner 1 µM)
In short: (§1)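 One day after seeding in 1536-well plates, lung cancer cell lines were dosed by pin tool. Dosing was either single-drug or a fixed anchor-drug dose plus five library-drug doses (not always all listed) in √10 steps. After 5 days, nuclei were stained in one fix-and-stain step and counted on 4× images, and relative viability is the nuclei count of treated wells over that of vehicle wells, given as the median of duplicate plates.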

[1] = compound: NC(=O)[C@@H](CCC(F)(F)F)N(Cc1ccc(-c2ncon2)cc1F)S(=O)(=O)c1ccc(Cl)cc1 [Avagacestat] + CC(=O)c1c(C)c2cnc(Nc3ccc(N4CCNCC4)cn3)nc2n(C2CCCC2)c1=O [Palbociclib] (partner 0.5 µM)
In short: as §1

Avagacestat + Vorinostat = compound: NC(=O)[C@@H](CCC(F)(F)F)N(Cc1ccc(-c2ncon2)cc1F)S(=O)(=O)c1ccc(Cl)cc1 [Avagacestat] + O=C(CCCCCCC(=O)Nc1ccccc1)NO [Vorinostat] (partner 1 µM)
In short: as §1

Avagacestat + AZD7762 = compound: NC(=O)[C@@H](CCC(F)(F)F)N(Cc1ccc(-c2ncon2)cc1F)S(=O)(=O)c1ccc(Cl)cc1 [Avagacestat] + NC(=O)Nc1cc(-c2cccc(F)c2)sc1C(=O)N[C@H]1CCCNC1 [AZD7762] (partner 0.2 µM)
In short: as §1

Cell Line | relative viability (Avagacestat + Crizotinib; first compound 0.08 µM) | relative viability (Avagacestat + Crizotinib; first compound 0.253 µM) | relative viability (Avagacestat + Crizotinib; first compound 0.8 µM) | relative viability (Avagacestat + Crizotinib; first compound 2.53 µM) | relative viability (Avagacestat + Crizotinib; first compound 8 µM) | relative viability ([1]; first compound 0.08 µM) | relative viability ([1]; first compound 0.253 µM) | relative viability ([1]; first compound 0.8 µM) | relative viability ([1]; first compound 2.53 µM) | relative viability ([1]; first compound 8 µM) | relative viability (Avagacestat + Vorinostat; first compound 0.08 µM) | relative viability (Avagacestat + Vorinostat; first compound 0.253 µM) | relative viability (Avagacestat + Vorinostat; first compound 0.8 µM) | relative viability (Avagacestat + Vorinostat; first compound 2.53 µM) | relative viability (Avagacestat + Vorinostat; first compound 8 µM) | relative viability (Avagacestat + AZD7762; first compound 0.08 µM) | relative viability (Avagacestat + AZD7762; first compound 0.253 µM) | relative viability (Avagacestat + AZD7762; first compound 0.8 µM) | relative viability (Avagacestat + AZD7762; first compound 2.53 µM) | relative viability (Avagacestat + AZD7762; first compound 8 µM)
A549 | 1.27 | 1.26 | 0.771 | 0.808 | 0.623 |  |  |  |  |  |  |  |  |  |  |  |  |  |  | 
COR-L23 | 0.678 | 0.642 | 0.552 | 0.643 | 0.441 | 0.283 | 0.266 | 0.284 | 0.276 | 0.217 | 0.474 | 0.457 | 0.484 | 0.366 | 0.332 |  |  |  |  | 
COR-L 105 | 0.856 | 0.815 | 0.919 | 0.547 | 0.72 | 0.435 | 0.353 | 0.429 | 0.391 | 0.4 | 1.08 | 0.891 | 0.87 | 0.792 | 0.884 |  |  |  |  | 
Calu-6 | 0.998 | 0.968 | 0.885 | 0.824 | 0.691 |  |  |  |  |  |  |  |  |  |  |  |  |  |  | 
EBC-1 | 0.213 | 0.196 | 0.2 | 0.21 | 0.203 |  |  |  |  |  |  |  |  |  |  |  |  |  |  | 
IA-LM | 1.98 | 1.36 | 1.09 | 0.879 | 1.1 |  |  |  |  |  | 1.56 | 1.59 | 1.51 | 0.957 | 0.992 |  |  |  |  | 
NCI-H520 | 0.895 | 0.836 | 0.729 | 0.727 | 0.459 | 0.21 | 0.23 | 0.198 | 0.194 | 0.201 | 0.8 | 0.767 | 0.773 | 0.637 | 0.639 |  |  |  |  | 
NCI-H522 |  |  |  |  |  | 1.13 | 1.2 | 1.08 | 0.954 | 0.946 | 1.04 | 1.01 | 0.928 | 0.866 | 0.792 | 0.768 | 0.82 | 0.807 | 0.843 | 0.985
NCI-H596 | 1.1 | 0.944 | 1.02 | 0.78 | 0.925 |  |  |  |  |  | 0.591 | 0.643 | 0.609 | 0.588 | 0.627 | 1.21 | 1.14 | 1.17 | 0.971 | 1.05
NCI-H661 | 1.12 | 1.06 | 1.05 | 1.3 | 0.968 | 0.415 | 0.343 | 0.428 | 0.386 | 0.419 | 0.845 | 0.98 | 0.827 | 0.784 | 0.785 |  |  |  |  | 
NCI-H1299 | 1.01 | 1.05 | 0.952 | 0.98 | 0.91 |  |  |  |  |  |  |  |  |  |  |  |  |  |  | 
NCI-H1395 |  |  |  |  |  | 0.675 | 0.64 | 0.594 | 0.486 | 0.593 | 0.64 | 0.519 | 0.719 | 0.429 | 0.63 | 0.407 | 0.365 | 0.369 | 0.412 | 0.333
NCI-H1563 | 0.883 | 0.751 | 0.83 | 0.801 | 0.708 |  |  |  |  |  |  |  |  |  |  |  |  |  |  | 
NCI-H1650 | 1.07 | 0.967 | 1.37 | 0.916 | 1.06 | 0.318 | 0.241 | 0.406 | 0.331 | 0.351 | 0.593 | 0.692 | 0.51 | 0.599 | 0.67 |  |  |  |  | 
NCI-H1703 | 0.975 | 0.777 | 0.864 | 0.587 | 0.581 |  |  |  |  |  |  |  |  |  |  | 0.123 | 0.143 | 0.115 | 0.112 | 0.124
NCI-H1792 | 1.42 | 1.33 | 1.45 | 0.992 | 0.805 | 0.817 |  | 0.751 |  | 0.612 |  |  |  |  |  | 0.726 | 0.942 | 0.706 | 0.65 | 0.345
NCI-H2009 | 1.04 | 1.14 | 1.01 | 1.04 | 0.975 | 0.201 | 0.202 | 0.214 | 0.215 | 0.199 | 0.704 | 0.876 | 0.733 | 0.722 | 0.694 |  |  |  |  | 
NCI-H2023 | 0.751 | 0.78 | 0.583 | 0.577 | 0.602 | 0.363 | 0.327 | 0.33 | 0.316 | 0.294 | 0.625 | 0.554 | 0.617 | 0.471 | 0.6 |  |  |  |  | 
NCI-H2228 | 0.472 | 0.487 | 0.427 | 0.465 | 0.423 | 0.783 | 0.819 | 0.947 | 0.911 | 0.595 | 0.752 | 0.787 | 0.569 | 0.641 | 0.511 |  |  |  |  | 
SK-LU-1 | 0.843 | 0.858 | 0.946 | 0.786 | 0.753 | 0.377 | 0.372 | 0.327 | 0.338 | 0.345 | 0.885 | 0.714 | 0.865 | 0.636 | 0.71 |  |  |  |  | 
SK-MES-1 | 0.943 | 1.06 | 0.97 | 0.902 | 0.915 | 0.318 | 0.342 | 0.329 | 0.307 | 0.32 | 1.12 | 1.35 | 1.29 | 1.06 | 1.02 |  |  |  |  | 
SW 1573 | 0.844 | 0.905 | 0.777 | 0.816 | 0.709 | 0.512 | 0.422 | 0.475 | 0.337 | 0.357 | 0.933 | 0.672 | 1.05 | 0.624 | 0.672 |  |  |  |  | 
UMC-11 | 0.632 | 0.664 | 0.749 | 0.582 | 0.585 | 0.325 | 0.312 | 0.323 | 0.315 | 0.34 | 0.388 | 0.396 | 0.398 | 0.396 | 0.412 |  |  |  |  | 
